Measurements as given in patent US6916905B2, “Dmt-Tic di-and tri-peptidic derivatives and related compositions and methods of use” (The United States of America as represented by the …, priority 2000, dated 2005).
Where two headings read alike, the source gives them in different places. Non-standard residues stand in square brackets, D forms with d. Residues, ends and D or L forms follow the SMILES beside them. *: point of attachment. Dmt = Cc1cc(O)cc(C)c1C[C@H](N)C(=O)O; Tic = O=C(O)[C@@H]1Cc2ccccc2CN1; NHtBu = CC(C)(C)N*

How the values were obtained:
δ-opioid receptors [1] = molecular target: T1, δ-opioid receptors (Rattus norvegicus, UniProt P33533); experiment: Rat brain synaptosome (P2) binding, agonist [3H]DPDPE (Example 47); conditions: for Agonist K1μ/Kiδ: selectivity, Kiδ from agonist radioligand [3H]DPDPE; for δ/μ selectivity, in words: from Table II binding
T1 construct: assayed with a rat brain synaptosomal preparation (P2); from tissue; host or cells: rat brain P2 synaptosomes
T1 sequence (P33533 whole entry): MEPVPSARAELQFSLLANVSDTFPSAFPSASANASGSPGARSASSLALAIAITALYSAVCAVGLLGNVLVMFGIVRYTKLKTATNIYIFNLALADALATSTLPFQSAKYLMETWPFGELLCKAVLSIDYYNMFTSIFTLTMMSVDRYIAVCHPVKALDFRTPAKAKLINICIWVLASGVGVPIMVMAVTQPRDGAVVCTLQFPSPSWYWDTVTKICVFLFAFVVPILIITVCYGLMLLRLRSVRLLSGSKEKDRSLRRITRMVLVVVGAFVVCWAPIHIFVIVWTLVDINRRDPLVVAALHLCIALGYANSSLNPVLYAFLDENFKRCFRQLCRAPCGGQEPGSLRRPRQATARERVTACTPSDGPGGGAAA
Procedure: Briefly, the agonists [^3H]DPDPE (30-60 Ci/mmol, NEN-DuPont) and [^3H]DAGO (30-60 Ci/mmol, Amersham) were used to label δ and μ sites, respectively, under saturation binding conditions (2 hrs at 22° C.). Excess unlabeled peptide (2 μM) established non-specific binding levels and the labeled membranes were rapidly filtered on Whatman GF/C glass fibre filters, thoroughly washed, dried and measured for radioactivity using CytoScint (ICN, Irvine, Calif.). […] The affinity constants (Ki) were calculated according to Cheng and Prusoff (Biochem. Pharmacol. 22: 3099-3108 (1973)).

δ-opioid receptors [2] = molecular target: T1, δ-opioid receptors; experiment: Rat brain synaptosome (P2) binding, δ antagonist [3H]N,N(CH3)2-Dmt-Tic-OH (Example 47); conditions: for Antagonist K1μ/Kiδ: selectivity, Kiδ from antagonist radioligand [3H]N,N(CH3)2-Dmt-Tic-OH
μ-opioid receptors = molecular target: T2, μ-opioid receptors (Rattus norvegicus, UniProt P33535); experiment: Rat brain synaptosome (P2) binding, [3H]DAGO (Example 47)
T2 construct: assayed with a rat brain synaptosomal preparation (P2); from tissue; host or cells: rat brain P2 synaptosomes
T2 sequence (P33535 whole entry): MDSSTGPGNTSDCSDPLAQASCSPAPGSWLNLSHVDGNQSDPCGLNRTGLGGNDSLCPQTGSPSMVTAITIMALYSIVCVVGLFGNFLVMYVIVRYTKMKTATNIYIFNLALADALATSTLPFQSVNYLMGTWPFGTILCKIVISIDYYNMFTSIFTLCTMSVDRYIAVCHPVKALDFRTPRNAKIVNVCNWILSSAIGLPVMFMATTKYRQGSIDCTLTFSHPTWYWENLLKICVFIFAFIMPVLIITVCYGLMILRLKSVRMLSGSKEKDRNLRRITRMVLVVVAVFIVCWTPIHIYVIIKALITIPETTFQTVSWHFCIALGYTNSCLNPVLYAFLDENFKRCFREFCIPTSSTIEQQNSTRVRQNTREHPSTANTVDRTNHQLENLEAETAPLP

δ receptors = δ receptors (Mus musculus, UniProt P32300)
δ receptors, sequence (P32300 whole entry): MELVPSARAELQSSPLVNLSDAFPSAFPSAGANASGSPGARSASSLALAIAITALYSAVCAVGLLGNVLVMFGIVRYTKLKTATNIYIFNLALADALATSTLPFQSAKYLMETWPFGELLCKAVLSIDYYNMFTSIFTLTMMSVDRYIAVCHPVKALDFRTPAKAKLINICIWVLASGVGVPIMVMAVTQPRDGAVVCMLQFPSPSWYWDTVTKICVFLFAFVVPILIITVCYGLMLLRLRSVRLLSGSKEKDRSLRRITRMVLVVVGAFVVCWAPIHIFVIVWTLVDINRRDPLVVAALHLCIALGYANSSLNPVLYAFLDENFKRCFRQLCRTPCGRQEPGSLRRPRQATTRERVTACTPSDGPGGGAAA
Procedure: (§1) The functional bioactivity of the present inventive compounds was assessed using standard functional bioassays of δ and μ activity in MVD and GPI (Salvadori et al. (1995), supra; and Salvadori et al., J. Med. Chem. 36: 3748-3756 (1993)). […] Dose-response curves were obtained (Salvadori et al. (1995), supra) for both tissues. […] Data were derived from at least four independent tissue samples and dose-response curves from which the pA2 values were determined (Salvadori et al. (1997), supra) according to Arunlakshana and Schild (Br. J. Pharmacol. 14: 48-58 (1959)).

μ receptors = μ receptors (Cavia porcellus, UniProt P97266); experiment: Guinea pig ileum (GPI) functional bioassay (Example 48); conditions: for GPI Ke: μ antagonism
μ receptors, sequence (P97266 whole entry, looked up): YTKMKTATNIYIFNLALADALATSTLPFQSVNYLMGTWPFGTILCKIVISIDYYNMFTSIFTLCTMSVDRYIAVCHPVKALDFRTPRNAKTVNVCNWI
Procedure: as §1

hMDR-1 = hMDR-1 (Homo sapiens, UniProt P08183); experiment: Calcein AM assay for Pgp in hMDR-1 transfected G-185 fibroblasts (Example 49); conditions: for inhibition of hMDR-1 (Pgp), in words: calcein fluorescence; for order of inhibition of hMDR-1: rank within amide series
hMDR-1, sequence (P08183 whole entry): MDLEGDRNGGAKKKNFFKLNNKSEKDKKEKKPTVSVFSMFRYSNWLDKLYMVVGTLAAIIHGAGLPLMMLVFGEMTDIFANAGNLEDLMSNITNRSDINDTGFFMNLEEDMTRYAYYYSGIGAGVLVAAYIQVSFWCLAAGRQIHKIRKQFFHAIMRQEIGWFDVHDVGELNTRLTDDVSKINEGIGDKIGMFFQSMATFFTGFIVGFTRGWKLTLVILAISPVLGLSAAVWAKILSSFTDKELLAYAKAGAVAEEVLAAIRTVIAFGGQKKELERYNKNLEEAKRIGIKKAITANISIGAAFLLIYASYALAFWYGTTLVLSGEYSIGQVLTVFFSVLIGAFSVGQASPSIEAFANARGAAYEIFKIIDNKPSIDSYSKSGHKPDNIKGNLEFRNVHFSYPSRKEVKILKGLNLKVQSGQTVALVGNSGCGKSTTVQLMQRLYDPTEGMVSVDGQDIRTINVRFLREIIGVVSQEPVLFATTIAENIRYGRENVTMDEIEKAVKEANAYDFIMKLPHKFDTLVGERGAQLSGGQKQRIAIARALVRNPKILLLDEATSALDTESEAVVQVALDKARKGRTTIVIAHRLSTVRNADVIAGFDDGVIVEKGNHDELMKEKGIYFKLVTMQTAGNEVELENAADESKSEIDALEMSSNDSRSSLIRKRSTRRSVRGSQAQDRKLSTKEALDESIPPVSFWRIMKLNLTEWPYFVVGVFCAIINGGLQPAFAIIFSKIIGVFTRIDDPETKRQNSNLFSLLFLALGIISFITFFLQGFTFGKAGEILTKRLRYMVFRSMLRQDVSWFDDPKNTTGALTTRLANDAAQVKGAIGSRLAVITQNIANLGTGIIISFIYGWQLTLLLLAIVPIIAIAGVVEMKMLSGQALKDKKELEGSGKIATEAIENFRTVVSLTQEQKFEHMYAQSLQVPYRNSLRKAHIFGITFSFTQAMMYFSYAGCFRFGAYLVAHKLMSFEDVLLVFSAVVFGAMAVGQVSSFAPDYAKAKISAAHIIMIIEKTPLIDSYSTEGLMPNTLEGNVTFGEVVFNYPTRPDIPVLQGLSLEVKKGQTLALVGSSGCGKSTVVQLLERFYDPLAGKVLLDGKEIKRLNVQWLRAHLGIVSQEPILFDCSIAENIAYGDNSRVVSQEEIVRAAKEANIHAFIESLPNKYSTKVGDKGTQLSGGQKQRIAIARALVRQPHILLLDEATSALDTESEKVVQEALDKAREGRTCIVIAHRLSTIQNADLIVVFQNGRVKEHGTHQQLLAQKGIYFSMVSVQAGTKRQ
Procedure: Stably transfected G-185 fibroblasts containing hMDR-1 and NIH 3T3 cell lines were grown to confluent monolayers in DMEM containing 4.5 g glucose/1, 10% fetal calf serum, L-glutamine, penicillin (50 units/ml), streptomycin (50 μg/ml) and 1 mM sodium pyruvate in 5% CO2 at 37° C. G-185 cells were maintained in […] colchicine.
The assay for Pgp is based on the diffusion of non-fluorescent calcein AM across the cell membrane. Calcein AM is then hydrolyzed and accumulates as the fluorescent calcein. In transfected cells expressing excess hMDR-1, Pgp extrudes calcein AM from the cell before hydrolysis occurs; inhibition of hMDR-1 results in the accumulation of intracellular calcein. Transfected G-185 cells and the NIH 3T3 cells were analyzed in triplicate using seven graded dosages of verapamil or the opioid peptides in 96-well plates. Cells (2.5×10^6/well) were incubated in 100 μl culture medium for 15 min at 37° C. and 50 μl of 1 μM calcein AM in PBS, plus 50 μl of verapamil or one of the present inventive compounds in PBS, or 100 μl of PBS alone (control) were added. Cells were mixed and incubated for 15 min at 37° C., then centrifuged for 5 min at 2,000×g, and then washed three times in 200 μl PBS. Cell pellets were resuspended in 200 μl PBS and transferred to white Microfluor Plates (Nunc, Copenhagen, Denmark) in order to measure calcein-specific fluorescence (494 nm absorption; 517 nm emission). Internal controls were carried out with each experiment using verapamil and PBS in order to compare the consistency between cell preparations. Means±SE (error bars) were determined and plotted using Prism™ (GraphPad, San Diego, Calif.).

[3] = rat brain synaptosomes (P2), mean ± SEM, n in parentheses, read-out: Kiδ(nM) [^3H]DPDPE
[4] = rat brain synaptosomes (P2), δ antagonist radioligand, mean ± SEM, n in parentheses, read-out: Kiδ(nM) [^3H]N,N(CH3)2-Dmt-Tic-OH
[5] = rat brain synaptosomes (P2), mean ± SEM, n in parentheses, read-out: Kiμ (nM) [^3H]DAGO
[6] = MVD pA2 (range), δ antagonism against deltorphin C, mean (range)
[7] = δ antagonism, Ke = antilog of pA2
[8] = MVD Ke(nM), δ antagonism, Ke = antilog of pA2

| Compound | Ki (δ-opioid receptors [1]; [3]) | Agonist K1μ/Kiδ (δ-opioid receptors [1]) | Ki (δ-opioid receptors [2]; [4]) | Antagonist K1μ/Kiδ (δ-opioid receptors [2]) | Ki (μ-opioid receptors; [5]) | bioactivity on MVD (δ), in words (δ receptors) | Kb (δ receptors; [6]) | MVD Ke (δ receptors; [7]) | EC50 (μ receptors) | Kb (δ receptors; [8]) | Kb (μ receptors) | bioactivity on GPI (μ), in words (μ receptors) | δ/μ selectivity, in words (δ-opioid receptors [1]) | order of inhibition of hMDR-1 (hMDR-1) | Ki (μ-opioid receptors) | also measured |
| --- | --- | --- | --- | --- | --- | --- | --- | --- | --- | --- | --- | --- | --- | --- | --- | --- |
| Cc1cc(O)cc(C)c1C[C@@H](C(=O)N1Cc2ccccc2C[C@H]1C(=O)O)N1CCCCC1 [Compound 3, [des-NH2-α-piperidine-1-yl]-Dmt-Tic-OH] | 1.18 ± 0.1 nM | 1728 | 0.74 ± 0.3 nM | 2755 | 2040 ± 264 nM | detrimental for all bioactivity measurements on MVD | 49 nM | 49 nM | > 10000 nM |  |  |  |  |  |  | inhibition of hMDR-1 (Pgp), in words (hMDR-1): inactive |
| CNC(=O)[C@@H]1Cc2ccccc2CN1C(=O)[C@@H](N)Cc1c(C)cc(O)cc1C [Compound 7, H-Dmt-Tic-NHMe] (H-[Dmt]-[Tic]-NHMe) |  |  |  |  | 85.5 ± 7.7 nM | extraordinarily weak δ agonism |  |  | > 10000 nM | > 10000 nM | 1150 nM | low μ antagonism |  |  |  | EC50 (δ receptors): 21200 nM; MVD pA2 (range) (δ receptors; δ antagonism against deltorphin C, mean (range)): —^d; GPI Ke (μ receptors): 1.15 µM; inhibition of hMDR-1 (Pgp), in words (hMDR-1): inactive |
| Cc1cc(O)cc(C)c1C[C@H](N)C(=O)N1Cc2ccccc2C[C@H]1C(=O)NC(C)(C)C [Compound 9, H-Dmt-Tic-NH-tBu] (H-[Dmt]-[Tic]-NHtBu) | 0.43 ± 0.07 nM | 14 | 0.93 ± 0.15 nM | 6 | 5.96 ± 0.82 nM | highest δ-antagonist functional bioactivities | 5.75 nM |  | 1040 nM | 1.74 nM |  |  | essentially nonselective | (compound 9)>>H-Dmt-Tic-NHMe (compound 7) (inactive) |  |  |
| Cc1cc(O)cc(C)c1C[C@H](N)C(=O)N1Cc2ccccc2C[C@H]1C(=O)NC12CC3CC(CC(C3)C1)C2 [Compound 11, H-Dmt-Tic-NH-1-adamantane] |  | 3 |  | 0.8 |  |  |  |  | 36 nM | > 10000 nM |  | moderate μ agonism | weakly μ selective | (compound 11)>H-Dmt-Tic-Ala-NH-1-adamantane (compound 21) | 0.76 ± 0.05 nM | Ki (δ-opioid receptors [1]): 0.26 ± 0.05 nM; Ki (δ-opioid receptors [2]): 1.01 ± 0.26 nM; EC50 (δ receptors): 870 nM |
| Cc1cc(O)cc(C)c1C[C@@H](C(=O)N1Cc2ccccc2C[C@H]1C(=O)NC(C)(C)C)N(C)C [Compound 14, N,N(Me)2-Dmt-Tic-NH-tBu] |  |  |  |  | 226 ± 21 nM | modest δ antagonism | 14.1 nM | 14.1 nM | > 10000 nM |  | 300 nM | weak μ antagonism |  | (compound 14)>H-Dmt-Tic-Ala-NH-tBu (compound 20) |  |  |
| Cc1cc(O)cc(C)c1C[C@@H](C(=O)N1Cc2ccccc2C[C@H]1C(=O)NC12CC3CC(CC(C3)C1)C2)N(C)C [Compound 15, N,N(Me)2-Dmt-Tic-NH-1-adamantane] |  | 7 |  | 9 |  |  | 0.871 nM | 0.87 nM | 16 nM |  |  | clearly displayed μ agonism | essentially nonselective | (compound 15)=H-Dmt-Tic-NH-1-adamantane (compound 11) | 1.12 ± 0.1 nM | Ki (δ-opioid receptors [1]): 0.16 ± 0.17 nM; Ki (δ-opioid receptors [2]): 0.12 ± 0.02 nM; rise in μ affinity relative to N,N(Me)2-Dmt-Tic-OH (μ-opioid receptors): ~2,200 fold |
| Cc1cc(O)cc(C)c1C[C@H](N)C(=O)N1Cc2ccccc2C[C@H]1C(=O)N[C@@H](C)C(=O)NC(C)(C)C [Compound 20, H-Dmt-Tic-Ala-NH-tBu] (H-[Dmt]-[Tic]-Ala-NHtBu; N-terminus and C-terminus assumed) | 0.066 ± 0.01 nM | 61 | 0.08 ± 0.02 nM | 48 | 4.03 ± 0.21 nM | highest δ-antagonist functional bioactivities | 0.692 nM | 0.69 nM | > 10000 nM |  | 174 nM |  |  | (compound 20)>H-Dmt-Tic-NH-tBu (compound 9) |  | GPI Ke (μ receptors): 0.17 µM |
| Cc1cc(O)cc(C)c1C[C@H](N)C(=O)N1Cc2ccccc2C[C@H]1C(=O)N[C@@H](C)C(=O)NC12CC3CC(CC(C3)C1)C2 [Compound 21, H-Dmt-Tic-Ala-NH-1-adamantane] |  |  |  |  |  | highest δ-antagonist functional bioactivities | 0.513 nM | 0.51 nM | 1000 nM |  |  |  |  | (compound 21)>>N,N(Me)2-Dmt-Tic-OH (inactive) | 2.52 ± 0.56 nM |  |
